# Entries after “also recorded” stand apart in the source; their conditions may differ. Counter-ions that a name gives are not always drawn. Like-named read-outs stand apart in the source and are kept apart here.
# Legend:
# RBL-2H3 cells [1] = assay: Antigen (DNP-BSA)-induced β-hexosaminidase release (degranulation) in IgE-sensitized RBL-2H3 cells; format: cell-based, rat; conditions: for effect on antigenic degranulation / β-hexosaminidase release: DNP-BSA 5 ng/ml and 40 ng/ml, antagonist concentration not stated; for blockade of IgE-dependent activation and degranulation of metachromatic cells, agent alone: antigen-induced maximal degranulation (FIG. 21-28)
# Description: The rat basophilic cell line RBL-2H3 is an art recognized model for studying the activation of metachromatic cells through FcεRI (Oliver et al., “Signal transduction and cellular response in RBL-2H3 mast cells,” Prog. Allergy 42:185-245, 1988).
# (§1) The below experiments used the rat basophilic cells RBL-2H3 commercially available from the American Type Culture Collection (ATCC; Manassas, Va.) under accession number CRL-2256. RBL-2H3 cells were passively sensitized with mouse IgE anti-dinitrophenyl conjugated to bovine serum albumin (DNP-BSA) monoclonal antibody for 22 hours, and then stimulated with DNP-BSA (antigen) to induce cell degranulation (FIG. 1).
# neurokinin-1 receptor [2] = biological target: neurokinin-1 receptor (Homo sapiens, UniProt P25103); conditions: cited from earlier work
# neurokinin-1 receptor (Homo sapiens, UniProt P25103), sequence (P25103 whole entry): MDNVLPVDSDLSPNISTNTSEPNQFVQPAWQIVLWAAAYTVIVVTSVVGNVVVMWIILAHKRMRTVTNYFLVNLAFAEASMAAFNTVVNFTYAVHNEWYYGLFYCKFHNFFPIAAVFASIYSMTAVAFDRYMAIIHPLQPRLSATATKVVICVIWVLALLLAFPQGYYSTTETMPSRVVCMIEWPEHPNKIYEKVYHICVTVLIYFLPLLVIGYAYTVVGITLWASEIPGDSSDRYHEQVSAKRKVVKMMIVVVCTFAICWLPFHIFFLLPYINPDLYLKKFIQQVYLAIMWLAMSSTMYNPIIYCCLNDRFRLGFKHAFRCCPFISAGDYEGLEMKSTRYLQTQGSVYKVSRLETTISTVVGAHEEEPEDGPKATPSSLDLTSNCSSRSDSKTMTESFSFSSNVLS
# neurokinin-1 receptor [3] = biological target: T1, neurokinin-1 receptor (Cavia porcellus, UniProt P30547); conditions: guinea pig ileum; cited from earlier work
# T1 construct: pA2: 7.16 (guinea pig ileum); from tissue; host or cells: guinea pig ileum
# T1 sequence (P30547 whole entry): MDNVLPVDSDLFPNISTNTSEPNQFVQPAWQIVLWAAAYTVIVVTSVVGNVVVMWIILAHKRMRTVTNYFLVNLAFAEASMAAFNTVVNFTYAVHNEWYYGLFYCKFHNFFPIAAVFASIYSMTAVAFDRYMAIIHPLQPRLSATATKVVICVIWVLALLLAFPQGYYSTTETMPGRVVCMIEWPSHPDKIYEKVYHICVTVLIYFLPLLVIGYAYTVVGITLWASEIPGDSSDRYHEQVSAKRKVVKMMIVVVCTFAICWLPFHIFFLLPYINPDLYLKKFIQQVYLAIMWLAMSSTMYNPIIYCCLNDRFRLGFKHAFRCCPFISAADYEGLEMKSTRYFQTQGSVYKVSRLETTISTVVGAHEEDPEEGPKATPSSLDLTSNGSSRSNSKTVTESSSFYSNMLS
# neurokinin-1 receptor [4] = biological target: T2, neurokinin-1 receptor (Rattus norvegicus, UniProt P14600); conditions: rat brain; cited from earlier work
# T2 construct: from tissue; host or cells: rat brain
# T2 sequence (P14600 whole entry): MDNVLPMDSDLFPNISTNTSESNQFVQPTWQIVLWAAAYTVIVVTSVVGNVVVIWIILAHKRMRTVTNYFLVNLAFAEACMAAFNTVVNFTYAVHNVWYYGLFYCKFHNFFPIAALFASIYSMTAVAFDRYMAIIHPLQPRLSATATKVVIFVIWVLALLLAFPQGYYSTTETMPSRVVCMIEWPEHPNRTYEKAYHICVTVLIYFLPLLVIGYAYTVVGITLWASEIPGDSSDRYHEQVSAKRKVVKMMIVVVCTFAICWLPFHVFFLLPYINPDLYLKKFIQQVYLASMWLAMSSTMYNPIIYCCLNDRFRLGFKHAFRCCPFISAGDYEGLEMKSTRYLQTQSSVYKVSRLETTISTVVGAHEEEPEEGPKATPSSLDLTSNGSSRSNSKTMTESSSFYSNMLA
# RBL-2H3 cells [5] = assay: Calcium ionophore A23187-induced β-hexosaminidase release in RBL-2H3 cells; format: cell-based, rat
# Experimental: RBL-2H3 cells were stimulated with the calcium ionophore A23187 (SigmaAldrich #C7522) in a concentration-dependent manner to induce metachromatic cell degranulation FIG. 10). […] The maximal inhibition is obtained at the concentration of 10 μM of L-703,606 (FIG. 11).
# RBL-2H3 cells [6] = assay: Intracellular calcium changes (Fluo-3 AM, epifluorescence microscopy) in RBL-2H3 cells; format: cell-based, rat; conditions: Fluo-3 AM loaded cells (FIG. 12)
# RBL-2H3 cells [7] = assay: Cell viability by trypan blue exclusion test in RBL-2H3 cells; format: cell-based, rat; conditions: IgE-sensitized RBL-2H3 cells stimulated with DNP-BSA (FIG. 3)
# Experimental: as §1, with “1). To address the issue of an autocrine tachykinergic regulation of metachromatic cell degranulation in response to antigenic activation, IgE-sensitized RBL-2H3 cells were pre-treated with a selective NK-1 receptor antagonist prior to antigen stimulation.” for “1).”
# NK-1 receptors = biological target: T3, NK-1 receptors (Homo sapiens, UniProt P25103); conditions: CHO cells expressing NK-1 receptors, cited from earlier work
# T3 construct: expressed in transfected cells; host or cells: CHO cells
# T3 sequence (P25103 whole entry): as the sequence (P25103 whole entry) above
# RBL-2H3 cells [8] = assay: Histamine immunoreactivity (intracellular histamine pools) in IgE-sensitized RBL-2H3 cells stimulated with DNP-BSA; format: cell-based, rat; conditions: pretreatment 10 μM; DNP-BSA 40 ng/ml
# Description: Data analysis using the macro built under the Image-Pro Plus platform enabled the representation of the frequency distribution of the maximal intensity for histamine immunoreactivity into RBL-2H3 cells. We arbitrarily divided basophils into six subgroups according to the range of maximal fluorescence intensity detected into the cells, e.g., 300 to 499 IAU (intensity arbitrary unit) or 900-1100 IAU. […] Therefore, frequency distribution analyses confirmed the β-hexosaminidase data by showing that blocking NK-1 receptors inhibits FcεRI clustering-induced metachromatic cell degranulation.
# [9] = antagonist 10 μM, DNP-BSA 5 ng/ml
# [10] = antagonist 10 μM, DNP-BSA 40 ng/ml
molecule,measurement,setting,value
"COc1cc(C(=O)N2CC[C@](CCN3CCC(C(N)=O)(c4ccccc4)CC3)(c3ccc(Cl)c(Cl)c3)C2)cc(OC)c1OC [MDL 105,212]",effect on antigenic degranulation / β-hexosaminidase release,RBL-2H3 cells [1],lack of inhibition
same,effect on cell degranulation induced by 40 ng/ml DNP-BSA,"RBL-2H3 cells [1]; antagonist 1 μM (but not 10 μM), DNP-BSA 40 ng/ml",significantly increased
same,effect on antigen concentration leading to 50% of maximal degranulation,"RBL-2H3 cells [1]; antagonist at both 1 μM and 10 μM, DNP-BSA 5 ng/ml",had no effect
"Cl.O=c1cc(N2CCOCC2)oc2c(-c3ccccc3)cccc12 [LY-294,002]","blockade of IgE-dependent activation and degranulation of metachromatic cells, agent alone",RBL-2H3 cells [1],potent blocker
COc1ccc(-c2cc3nccn3c(Nc3ncccc3C(N)=O)n2)cc1OC [BAY 61-3606],"blockade of IgE-dependent activation and degranulation of metachromatic cells, agent alone",RBL-2H3 cells [1],potent blocker
"[D-Arg^1, D-Phe^5, D- Trp^7,9, Leu^11] substance P [Antagonist D]",effect on antigenic degranulation / β-hexosaminidase release,RBL-2H3 cells [1],did not alter; also recorded: lack of inhibition
same,Affinity (selectivity in words),neurokinin-1 receptor [2],Non-selective
"COc1ccccc1CC(=N)N1C[C@@H]2C(=O)CCC(c3ccccc3)(c3ccccc3)[C@@H]2C1 [RP 67580, (3aR,7aR)-Octahydro-2-[1-imino-2-(2-methoxyphenyl)ethyl]-7,7-diphenyl-4H-isoindol]",pA2,neurokinin-1 receptor [3],7.16
same,decrease of degranulation induced by 5 ng/ml DNP-BSA,RBL-2H3 cells [1]; [9],~50%
same,effect on maximal antigenic degranulation,RBL-2H3 cells [1]; [10],no significant effect
same,IC50,neurokinin-1 receptor [4],10 nM
"Ic1ccccc1CNC1C2CCN(CC2)C1C(c1ccccc1)c1ccccc1.O=C(O)C(=O)O [L-703,606, cis-2-(Diphenylmethel)-N-([2-iodophenyl]methyl)-1-azabicyclo (2.2.2) octan-3-amine]",concentration giving maximal inhibition of calcium ionophore-induced degranulation,RBL-2H3 cells [5]; calcium ionophore A23187,10 µM
same,inhibition of calcium ionophore-induced activation and degranulation,RBL-2H3 cells [5]; calcium ionophore A23187 (FIG. 11),"inhibit, in a concentration-dependent manner"
same,effect on antigen-induced maximal degranulation,"RBL-2H3 cells [1]; L-703,606 5 μM alone, antigen 40 ng/ml",weak effect
same,effect on inhibition by Tacrolimus of antigen-induced maximal cell degranulation,"RBL-2H3 cells [1]; L-703,606 10 μM, Tacrolimus 0.01 μM",potentiates
same,effect on inhibition by cyclosporin A of antigen-induced maximal cell degranulation,"RBL-2H3 cells [1]; L-703,606 10 μM, cyclosporin A 0.1 μM",potentiates
same,effect on inhibition by FTY720 of antigen-induced maximal cell degranulation,"RBL-2H3 cells [1]; L-703,606 1, 5 and 10 μM, FTY720 5 μM",potentiates
same,effect on inhibition by BAY 61-3606 of antigen-induced maximal cell degranulation,"RBL-2H3 cells [1]; L-703,606 5 and 10 μM, BAY 61-3606 100 and 250 nM",potentiates
same,"effect on inhibition by LY-294,002 of antigen-induced maximal cell degranulation","RBL-2H3 cells [1]; L-703,606 5 and 10 μM, LY-294,002 1 and 10 μM",potentiates
same,effect on inhibition by PD98059 of antigen-induced maximal cell degranulation,"RBL-2H3 cells [1]; L-703,606 5 and 10 μM, PD98059 5, 10 and 25 μM",potentiates
same,effect on inhibition by PP1 of antigen-induced maximal cell degranulation,"RBL-2H3 cells [1]; L-703,606 5 and 10 μM, PP1 1 and 5 μM",potentiates
same,effect on inhibition by SB202190 of antigen-induced maximal cell degranulation,"RBL-2H3 cells [1]; L-703,606 5 and 10 μM, SB202190 10 and 25 μM",potentiates
same,effect on antigen-induced 50% of cell degranulation,RBL-2H3 cells [1]; [9],completely abolished
same,reduction of maximal antigenic degranulation response,RBL-2H3 cells [1]; [10],~50%
same,inhibition of antigen-induced β-hexosaminidase release,"RBL-2H3 cells [1]; antagonist 1 to 10 μM, DNP-BSA 5 ng/ml or 40 ng/ml",concentration-dependent inhibition
same,effect on basal release of β-hexosaminidase,"RBL-2H3 cells [1]; no antigen, data not shown",did not change
same,most efficient inhibitory concentration for β-hexosaminidase release,RBL-2H3 cells [1]; range tested 1 to 10 μM,10 µM
same,effect on calcium ionophore-induced calcium signals,RBL-2H3 cells [6],unlikely to be attributable to inhibition of calcium ionophore-induced extracellular calcium signals
same,cell viability (trypan blue exclusion),RBL-2H3 cells [7],did not alter cell viability
same,cell viability (trypan blue exclusion),"RBL-2H3 cells [7]; listed as L-703,606 oxalate salt",not attributable to cell death
same,IC50,NK-1 receptors,2 nM
same,Kd,neurokinin-1 receptor [2]; 35% sites,1.5 nM
same,Kd,neurokinin-1 receptor [2]; 65% sites,0.04 nM
same,depletion of histamine intracellular pools,RBL-2H3 cells [8],mostly abolished
C=CC[C@@H]1/C=C(\C)C[C@H](C)C[C@H](OC)[C@H]2O[C@@](O)(C(=O)C(=O)N3CCCC[C@H]3C(=O)O[C@H](/C(C)=C/[C@@H]3CC[C@@H](O)[C@H](OC)C3)[C@H](C)[C@@H](O)CC1=O)[C@H](C)C[C@@H]2OC [Tacrolimus],"blockade of IgE-dependent activation and degranulation of metachromatic cells, agent alone",RBL-2H3 cells [1],potent blocker
COc1cccc(-c2cc(=O)c3ccccc3o2)c1N [PD98059],"blockade of IgE-dependent activation and degranulation of metachromatic cells, agent alone",RBL-2H3 cells [1],potent blocker
Oc1ccc(-c2nc(-c3ccncc3)c(-c3ccc(F)cc3)[nH]2)cc1 [SB202190],"blockade of IgE-dependent activation and degranulation of metachromatic cells, agent alone",RBL-2H3 cells [1],potent blocker
CCCCCCCCc1ccc(CCC(N)(CO)CO)cc1.Cl [FTY720],"blockade of IgE-dependent activation and degranulation of metachromatic cells, agent alone",RBL-2H3 cells [1],potent blocker
C[C@@H]1C[C@H]2[C@@H]3CCC4=CC(=O)C=C[C@]4(C)[C@@]3(F)[C@@H](O)C[C@]2(C)[C@@]1(O)C(=O)CO [dexamethasone],reduction of maximal degranulation,"RBL-2H3 cells [1]; dexamethasone 10^−8 M alone, antigen 40 ng/ml",50%
"FC(F)(F)c1cc(CO[C@@H]2CCCN[C@@H]2c2ccccc2)cc(C(F)(F)F)c1 [L-733,060, ((2S,3S)-3-[[3,5-bis (Trifluoromethyl)phenyl]methoxy]-2-phenylpiperidine hydrochloride]",effect on antigen-induced 50% of cell degranulation,RBL-2H3 cells [1]; [9],completely abolished
same,reduction of maximal antigenic degranulation response,RBL-2H3 cells [1]; [10],~55%
same,IC50,NK-1 receptors; read-out: IC50,1 nM
